# Results taken from US10583143B2, “Methods and compositions for the treatment or prevention of abnormal bone formation in a soft tissue” (THE BRIGHAM AND WOMEN'S HOSPITAL, INC., priority 2015, dated 2020).
# pIC50: −log10 of the molar value. Entries after “also recorded” stand apart in the source; their conditions may differ.
# Columns and labels:
# ALK4/ACVR1B = target: T1, ALK4/ACVR1B (Homo sapiens, UniProt P36896); assay: CAGA-Luc luciferase reporter in HEK293 cells driven by constitutively active ALK4; format: cell-based; conditions: Ad.caALK4, read-out: IC50 inhibition of caALK4 activity (CAGA-Luc)
# T1 sequence (P36896 1-505 T206D): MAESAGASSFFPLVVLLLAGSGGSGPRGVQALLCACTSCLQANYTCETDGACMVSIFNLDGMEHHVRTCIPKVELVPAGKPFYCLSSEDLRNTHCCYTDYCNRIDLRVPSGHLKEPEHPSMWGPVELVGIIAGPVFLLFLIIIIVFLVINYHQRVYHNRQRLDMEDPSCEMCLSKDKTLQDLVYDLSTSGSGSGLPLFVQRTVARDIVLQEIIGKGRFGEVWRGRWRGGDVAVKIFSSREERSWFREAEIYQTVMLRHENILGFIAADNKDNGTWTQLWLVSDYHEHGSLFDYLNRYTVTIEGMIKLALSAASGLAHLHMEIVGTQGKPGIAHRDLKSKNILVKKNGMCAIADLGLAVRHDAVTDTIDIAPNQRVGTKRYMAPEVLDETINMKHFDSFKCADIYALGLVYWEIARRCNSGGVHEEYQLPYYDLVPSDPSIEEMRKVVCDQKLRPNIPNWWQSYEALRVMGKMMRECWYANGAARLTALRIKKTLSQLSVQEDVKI
# Description: (§1) Inhibition of BMP-mediated gene transcription was measured via the activity of a BMP-response element luciferase reporter (BRE-Luc) stably expressed in the C2C12 cell line as a measure of BMP signaling inhibition, with gene expression being driven by constitutively active (ca-) forms of BMP type I receptors ALK1, ALK2, and ALK3 (FIG. 1). This was measured in comparison to the inhibition of TGF-β or Activin signaling via CAGA-Luc reporter construct stably expressed in HEK293 cells, with gene expression being driven by constitutively active (ca-) forms of Activin/TGF=β type I receptors ALK4 or ALK5 (FIG. 1). […]. C2C12 myofibroblast cells stably expressing firefly luciferase under the control of BMP-responsive promoter element (BRE-Luc) were generously provided by Dr. Peter ten Dijke (Leiden University Medical Center, NL). Human embryonic kidney 293T cells stably transfected with the TGF-β-responsive element fused to luciferase gene (CAGA-Luc) were a kind gift of Dr. Howard Weiner (Brigham and Women's Hospital, Boston, Mass.). […] Media was discarded and firefly luciferase activity was measured (Promega™) according to manufacturer's protocol. Light output was measured using a Spectramax™ L luminometer (Molecular Devices™) with an integration time of one second per well. […]
# [1] = system: constitutively activated ALK1-5; assay: Cell-based luciferase reporter assays with constitutively activated ALK1-5, potency comparison; conditions: ALK1-5, BRE-Luc / CAGA-Luc
# Source text: […]. Inhibition curves of BMP and TGF-β transcriptional activity mediated by constitutively activated ALK1-5 in a cell-based luciferase reporter assays. […]. Data shown are representative of more than 3 independent experiments, with data plotted as mean±S.E.M. (n=3 replicates)
# C2C12 myofibroblast cells stably expressing firefly luciferase under the control of BMP-responsive promoter element (BRE-Luc) were generously provided by Dr. Peter ten Dijke (Leiden University Medical Center, NL). Human embryonic kidney 293T cells stably transfected with the TGF-β-responsive element fused to luciferase gene (CAGA-Luc) were a kind gift of Dr. Howard Weiner (Brigham and Women's Hospital, Boston, Mass.). C2C12 Bre-Luc and 293T CAGA-Luc cells were seeded at 20,000 cells in DMEM supplemented with 2% FBS per well in tissue culture treated 96-well plates (Costar® 3610; Corning). The cells were incubated for 1 h (37° C. and 10% CO2) and allowed to settle and attach. […]. Cells were then incubated for 30 min. […] Media was discarded and firefly luciferase activity was measured (Promega™) according to manufacturer's protocol. Light output was measured using a Spectramax™ L luminometer (Molecular Devices™) with an integration time of one second per well. […]
# [2] = 60 mg to 250 mg p.o. per day; cited from earlier work
# ALK5/TGFBR1 = target: T2, ALK5/TGFBR1 (Homo sapiens, UniProt P36897, T204D); assay: CAGA-Luc luciferase reporter in HEK293 cells driven by constitutively active ALK5; format: cell-based; conditions: Ad.caALK5, read-out: IC50 inhibition of caALK5 activity (CAGA-Luc)
# T2 construct: expressed in transfected cells; host or cells: 293T CAGA-Luc cells infected with Ad.caALK5 (gift of Dr. Akiko Hata)
# T2 sequence (P36897 34-503 T204D): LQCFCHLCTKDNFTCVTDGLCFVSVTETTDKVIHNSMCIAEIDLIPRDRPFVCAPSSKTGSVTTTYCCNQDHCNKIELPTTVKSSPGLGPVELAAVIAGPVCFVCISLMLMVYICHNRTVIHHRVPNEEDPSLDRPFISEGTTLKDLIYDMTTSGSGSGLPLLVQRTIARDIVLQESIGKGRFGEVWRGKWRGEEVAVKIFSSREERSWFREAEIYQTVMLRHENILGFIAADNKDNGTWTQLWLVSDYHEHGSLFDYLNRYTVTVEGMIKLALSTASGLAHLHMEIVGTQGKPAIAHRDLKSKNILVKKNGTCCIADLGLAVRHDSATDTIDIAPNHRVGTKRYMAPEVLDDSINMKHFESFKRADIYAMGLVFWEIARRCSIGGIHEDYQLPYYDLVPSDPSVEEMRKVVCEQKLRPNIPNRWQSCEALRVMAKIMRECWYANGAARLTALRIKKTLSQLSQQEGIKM
# Description: as §1
# [3] = system: ACVR1^[R206H]FlEx/+] knock-in mice; assay: ACVR1^[R206H]FlEx/+] knock-in mouse model of FOP
# Description: Mice were maintained in accordance with Institutional Animal Care and Use Committee guidelines under approved experimental protocols. […] Heterotopic bone formation in these mice was introduced via single retro-popliteal injection of adenoviral Cre-recombinase at 1×10^8 PFU at postnatal day 7 (P7). […] Bone formation as a function of a loss of passive range of motion, via dorsiflexion of the left ankle joint was assessed daily. […] On day 35 for inducible ACVR1^Q207D mice, and on day 90-120 for inducible ACVR1^R206H mice were sacrificed and imaged via X-ray radiography (MS FX In-Vivo Pro: Carestream Health). Micro-computed tomography (micro-CT) imaging was carried out on samples fixed overnight in 1% paraformaldehyde followed by scanning (μCT35, ScanCo).
# [4] = system: ACVR1^Q207D (CAG-Z-EGFP-caALK2) transgenic mice; assay: Inducible ACVR1^Q207D-Tg (CAG-Z-EGFP-caALK2) mouse model of heterotopic ossification / FOP; conditions: for heterotopic bone lesions on x-ray: 6 mg/kg i.p. twice daily; for passive range-of-motion: 6 mg/kg intraperitoneally twice daily
# [5] = 25 mg/kg oral gavage daily for first 28 days only, observed up to 90 days
# [6] = 25 mg/kg intraperitoneally twice daily for 28 days
compound,measurement,setting,value
"CN1CCN(CCOc2cc(OC3CCOCC3)c3c(Nc4c(Cl)ccc5c4OCO5)ncnc3c2)CC1 [AZD-0530, N-(5-chloro-1,3-benzodioxol-4-yl)-7-[2-(4-methylpiperazin-1-yl)ethoxy]-5-[(tetrahydro-2H-pyran-4-yl)oxy]quinazolin-4-amine]",pIC50,ALK4/ACVR1B,6.66
same,decreased potency against all receptors compared with LDN-193189,[1],approximately 10 fold
same,tolerability in healthy human adults,[2],good tolerability
same,pIC50,ALK5/TGFBR1,6.66
same,change in weight compared to vehicle treated controls,[3]; 25 mg/kg oral gavage daily for 28 days,No statistically significant change
same,progressive loss of range of motion,[3]; [5],protected
same,radiographic bone formation,[3]; [5],protected
c1ccc2c(-c3cnn4cc(-c5ccc(N6CCNCC6)cc5)cnc34)ccnc2c1 [LDN-193189],heterotopic bone lesions on x-ray,[4],preventing heterotopic bone lesions
same,passive range-of-motion,[4],effective in preserving range of motion; also recorded: mobility was almost entirely preserved
c1cc(-c2cnn3cc(-c4ccc(N5CCNCC5)cc4)cnc23)c2cccnc2c1 [LDN-212854],heterotopic bone lesions on x-ray,[4],preventing heterotopic bone lesions
same,passive range-of-motion,[4],effective in preserving range of motion; also recorded: mobility was almost entirely preserved
COc1cc2c(Nc3ccc(Br)cc3F)ncnc2cc1OCC1CCN(C)CC1 [ZD-6474],radiographic heterotopic ossification,[4]; [6],did not significantly attenuate; also recorded: no evidence of improvement
same,range-of motion,[4]; [6],no evidence of improvement
